In patent US20240400560A1, “BICYCLIC HETEROCYCLIC DERIVATIVE HAVING VIRAL GROWTH INHIBITORY ACTIVITY AND PHARMACEUTICAL COMPOSITION CONTAINING SAME” (Shionogi & Co., Ltd., priority 2021, published 2024):
Read-outs that look alike come from different tables or passages of the source.

Experiments:
SARS-CoV-2 = assay: Inhibitory activity of cytopathic effect (CPE) in HEK293T/ACE2-TMPRSS2 cells; assay type: cell-based; details: Severe acute respiratory syndrome coronavirus 2, HEK-293T, 72 h
SARS-CoV-2 3CL protease = SARS-CoV-2 3CL protease (Severe acute respiratory syndrome coronavirus 2, UniProt P0DTD1); assay: Inhibitory activity test against SARS-CoV-2 3CL proteases; assay type: biochemical
[1] = HEK293T/ACE2-TMPRSS2 cells, cultured 3 days, CellTiter-Glo 2.0 luminescence, read-out: EC50 (50% SARS-CoV-2 infected cell death inhibitory concentration)
[2] = read-out: IC50 (50% SARS-CoV-2 3CL protease inhibitory concentration)
[3] = 50% SARS-CoV-2 infected cell death inhibitory concentration, HEK293T/ACE2-TMPRSS2 cells, CellTiter-Glo 2.0 after 3 days culture, read-out: EC50
[4] = read-out: EC50 (50% SARS-CoV-2 infected cell death inhibitory concentration)
[5] = IC50 (50% SARS-CoV-2 3CL protease inhibitory concentration)

SMILES	EC50 (SARS-CoV-2; [1])	IC50 (SARS-CoV-2 3CL protease; [2])	other results
COc1cc(-c2cc(C#N)ccc2Cl)cc2c1c(=O)n(-c1cnc3ccccn13)c(=O)n2Cc1cc(F)c(F)c(F)c1 [Compound I-0660]	< 100 nM	< 100 nM	–
C=Cc1cc2c(c(OC)n1)c(=O)n(-c1cnc3cc(F)ccn13)c(=O)n2-c1ccc(F)c(Cl)c1 [Compound I-0999]	100 to 1000 nM	< 100 nM	–
COc1cc(N2CCCC2)cc2c1c(=O)n(Cc1ncn(C)n1)c(=O)n2Cc1cc(Cl)ccc1Cl [Compound I-0784]	100 to 1000 nM	< 100 nM	–
COc1nc(N2CC[C@@H](C#N)C2)cc2c1c(=O)n(-c1cnc3cc(F)c(F)cn13)c(=O)n2-c1ccc(F)c(Cl)c1 [Compound I-0946]	< 100 nM	< 100 nM	–
[2H]C([2H])([2H])O[C@@H]1CCN(c2cc3c(c(OC)n2)c(=O)n(-c2cncc(C)c2)c(=O)n3-c2ccc(F)c(Cl)c2)C1 [Compound I-0937]	–	1.3 nM	EC50 (SARS-CoV-2; [3]): 5.56 nM
CCCn1c(-c2cc(C#N)ccc2Cl)cc2c(c1=O)c(=O)n(-c1cncc(Cl)c1)c(=O)n2Cc1cc(F)c(F)c(F)c1 [Compound I-0686]	–	1.7 nM	EC50 (SARS-CoV-2; [3]): 22.4 nM
Cn1cnc(Cn2c(=O)c3c(cc(-c4cc(C#N)ccc4Cl)n4c(=O)[nH]nc34)n(Cc3cc(F)c(F)c(F)c3)c2=O)n1 [Compound I-0647]	–	5.7 nM	EC50 (SARS-CoV-2; [3]): 13900 nM
Cn1cnc(Cn2c(=O)c3c4nccnc4c(-c4cc5c(cc4Cl)NC(=O)C5)cc3n(Cc3cc(F)c(F)c(Cl)c3)c2=O)n1 [Compound I-0823]	–	0.75 nM	EC50 (SARS-CoV-2; [3]): 197 nM
O=c1c2c(F)cc(N3[C@@H]4CC[C@H]3CNC4)cc2n(Cc2cc(F)c(F)c(Cl)c2)c(=O)n1-c1cnc2ccccn12 [Compound I-0548]	–	–	EC50 (SARS-CoV-2; [4]): < 100 nM; IC50 (SARS-CoV-2 3CL protease; [5]): < 100 nM
COc1nc2c(=O)n(Cc3ncn(C)n3)c(=O)n(Cc3cc(F)c(F)c(Cl)c3)c2cc1-c1nc(C(=O)NC2(C)COC2)ccc1Cl [Compound I-0886]	< 100 nM	< 100 nM	–
[2H]C([2H])([2H])O[C@@H]1CCN(c2cc3c(c(OC)n2)c(=O)n(-c2cncc(OCF)c2)c(=O)n3-c2ccc(F)c(Cl)c2)C1 [Compound I-0963]	< 100 nM	< 100 nM	–
COc1nc(N2CC(F)(F)C2)cc2c1c(=O)n(-c1cnc3cc(F)ccn13)c(=O)n2-c1ccc(F)c(Cl)c1 [Compound I-1035]	< 100 nM	–	IC50 (SARS-CoV-2 3CL protease; [5]): < 100 nM
Cn1cnc(Cn2c(=O)c3c4c(c(-c5cc(C#N)ccc5Cl)cc3n(Cc3cc(F)c(F)c(F)c3)c2=O)C(F)(F)CO4)n1 [Compound I-0866]	–	6.4 nM	EC50 (SARS-CoV-2; [3]): 15.4 nM
COc1nc(N2CC[C@@H](F)C2)cc2c1c(=O)n(-c1cnc3cc(F)ccn13)c(=O)n2Cc1cc(F)c(F)c(F)c1 [Compound I-0673]	< 100 nM	< 100 nM	–
[2H]C([2H])([2H])O[C@@H]1CCN(c2cc3c(c(OC)n2)c(=O)n(-c2cnc4cc(F)ccn24)c(=O)n3-c2cc(F)c(F)c(Cl)c2)C1 [Compound I-0942]	< 100 nM	< 100 nM	–
COc1nc(N2CCC(O)(C(F)F)C2)cc2c1c(=O)n(-c1cnc3cc(F)ccn13)c(=O)n2-c1ccc(F)c(Cl)c1 (centres unmarked) [Compound I-1056]	< 100 nM	< 100 nM	–
COCCCc1cc2c(c(OC)n1)c(=O)n(-c1cnc3cc(F)ccn13)c(=O)n2-c1ccc(F)c(Cl)c1 [Compound I-1062]	< 100 nM	< 100 nM	–
COc1nc2c(=O)n(Cc3ncn(C)n3)c(=O)n(Cc3cc(Cl)c(F)cc3C)c2cc1-c1cc(C(C)(C)O)ccc1Cl [Compound I-0822]	< 100 nM	< 100 nM	–
COc1cc(-c2cc([C@@H](C)O)ccc2Cl)cc2c1c(=O)n(Cc1ncn(C)n1)c(=O)n2Cc1cc(F)c(F)c(F)c1 [Compound I-0839]	100 to 1000 nM	< 100 nM	–
COc1nc(N2CC[C@@H](O)C2)cc2c1c(=O)n(-c1cncc(F)c1)c(=O)n2-c1ccc(F)c(Cl)c1 [Compound I-0965]	< 100 nM	< 100 nM	–
COc1nc2c(=O)n(Cc3ncn(C)n3)c(=O)n(Cc3ccc(F)c(Cl)c3)c2cc1-c1cc(C#N)ccc1Cl [Compound I-0726]	< 100 nM	< 100 nM	–
Cn1cnc(Cn2c(=O)c3c(F)c(C4CC4)c(-c4cc(C#N)ccc4Cl)cc3n(Cc3cc(F)c(F)c(Cl)c3)c2=O)n1 [Compound I-0638]	< 100 nM	< 100 nM	–
COc1nc(N2CCC3(COC3)C2)cc2c1c(=O)n(-c1cnc3cc(F)ccn13)c(=O)n2-c1ccc(F)c(Cl)c1 [Compound I-1039]	< 100 nM	< 100 nM	–
COc1nc2c(=O)n(Cc3ncn(C)n3)c(=O)n(Cc3cc(F)c(F)c(Cl)c3)c2cc1-c1cc(N=S(C)(C)=O)ccc1Cl [Compound I-0887]	–	9.8 nM	EC50 (SARS-CoV-2; [3]): 98.2 nM
CCNc1cc2c(c(OC)n1)c(=O)n(-c1cncc(Cl)c1)c(=O)n2-c1ccc(F)c(Cl)c1 [Compound I-0966]	–	3.8 nM	EC50 (SARS-CoV-2; [3]): 9.01 nM

SMILES	EC50 (SARS-CoV-2; [1])	IC50 (SARS-CoV-2 3CL protease; [2])	other results
COc1nc(N2CC[C@@H](C#N)C2)cc2c1c(=O)n(-c1cnc3cc(F)ccn13)c(=O)n2-c1ccc(F)c(C(F)F)c1 [Compound I-0958]	< 100 nM	< 100 nM	–
O=c1c2c(=O)n(-c3cnc4cc(F)ccn34)c(=O)n(-c3ccc(F)c(Cl)c3)c2cc2n1CC[C@H]1CCCN21 [Compound I-1051]	100 to 1000 nM	< 100 nM	–
COc1cc(N2[C@@H]3CC[C@H]2CNC3)cc2c1c(=O)n(-c1cnc3cc(F)ccn13)c(=O)n2Cc1cc(Cl)c(F)cc1C [Compound I-0650]	–	–	EC50 (SARS-CoV-2): 27.3 nM; IC50 (SARS-CoV-2 3CL protease; [5]): 1.2 nM
COc1cc(-c2cccc(C#N)c2Cl)cc2c1c(=O)n(Cc1ncn(C)n1)c(=O)n2Cc1cc(F)c(F)c(F)c1 [Compound I-0847]	100 to 1000 nM	< 100 nM	–
COc1nc(N2CC[C@@H](F)C2)cc2c1c(=O)n(Cc1ncn(C)n1)c(=O)n2-c1ccc(C)c(Cl)c1 [Compound I-0800]	< 100 nM	< 100 nM	–
COc1nc(N2CCCC2)cc2c1c(=O)n(-c1cnc3cc(F)ccn13)c(=O)n2-c1ccc(F)c(Cl)c1 [Compound I-0752]	< 100 nM	< 100 nM	–
COc1cc(-c2ncc(N)cc2Cl)cc2c1c(=O)n(Cc1ncn(C)n1)c(=O)n2Cc1cc(F)c(F)c(F)c1 [Compound I-0834]	< 100 nM	< 100 nM	–
COc1nc(N2CC[C@@H](C#N)C2)cc2c1c(=O)n(-c1cncc(C#N)c1)c(=O)n2-c1ccc(F)c(F)c1 [Compound I-0984]	< 100 nM	< 100 nM	–
COc1nc2c(=O)n(Cc3ncn(C)n3)c(=O)n(Cc3cc(F)c(F)c(Cl)c3)c2cc1-c1nc(C#N)ccc1Cl [Compound I-0819]	< 100 nM	< 100 nM	–
COc1nc(N2CCC(O)(CF)C2)cc2c1c(=O)n(-c1cnc3cc(F)ccn13)c(=O)n2-c1ccc(F)c(Cl)c1 (centres unmarked) [Compound I-1037]	< 100 nM	< 100 nM	–
COc1nc2c(=O)n(Cc3ncn(C)n3)c(=O)n(Cc3cc(F)c(F)c(Cl)c3)c2cc1-c1nc(C(C)(C)O)ccc1Cl [Compound I-0880]	–	4.4 nM	EC50 (SARS-CoV-2; [3]): 17.8 nM
COc1nc(N2CC[C@H](CO)C2)cc2c1c(=O)n(-c1cnc3cc(F)ccn13)c(=O)n2-c1ccc(F)c(Cl)c1 [Compound I-0749]	< 100 nM	< 100 nM	–
COc1nc(N2[C@@H]3CC[C@H]2COC3)cc2c1c(=O)n(-c1cnc3cc(F)ccn13)c(=O)n2-c1ccc(F)c(Cl)c1 [Compound I-1001]	–	–	EC50 (SARS-CoV-2; [4]): < 100 nM; IC50 (SARS-CoV-2 3CL protease; [5]): < 100 nM
COc1nc(N2CCC(F)(F)C2)cc2c1c(=O)n(-c1cc(C)cnn1)c(=O)n2-c1ccc(F)c(Cl)c1 [Compound I-1003]	< 100 nM	< 100 nM	–
COc1nc(N2CC[C@@H](O)C2)cc2c1c(=O)n(-c1cnc3cc(F)ccn13)c(=O)n2Cc1cc(F)c(F)c(F)c1 [Compound I-0730]	< 100 nM	< 100 nM	–
Cc1cnc2c3c(=O)n(Cc4ncn(C)n4)c(=O)n(Cc4cc(F)c(F)c(F)c4)c3cc(-c3cc(C#N)ccc3Cl)n12 [Compound I-0643]	–	4.3 nM	EC50 (SARS-CoV-2; [3]): 520 nM
COc1nc(N2CC[C@@H](C(F)F)C2)cc2c1c(=O)n(-c1cnc3cc(F)ccn13)c(=O)n2-c1ccc(F)c(Cl)c1 [Compound I-0983]	< 100 nM	< 100 nM	–
Cn1cnc(Cn2c(=O)c3c(=O)n(C)c(N4CCC(F)(F)C4)cc3n(Cc3cc(F)c(F)c(Cl)c3)c2=O)n1 [Compound I-0931]	100 to 1000 nM	< 100 nM	–
Cn1cnc(Cn2c(=O)c3c4nccnc4c(-c4cc(C(C)(C)O)ccc4Cl)cc3n(Cc3cc(F)c(F)c(Cl)c3)c2=O)n1 [Compound I-0810]	–	1.3 nM	EC50 (SARS-CoV-2; [3]): 19.4 nM
COc1nc(N2C[C@@H](F)[C@@H](OC)C2)cc2c1c(=O)n(-c1cnc3cc(F)ccn13)c(=O)n2-c1ccc(F)c(Cl)c1 [Compound I-1052]	< 100 nM	< 100 nM	–
CCC(=O)c1ccc(Cl)c(-c2cc(OC)c3c(=O)n(Cc4ncn(C)n4)c(=O)n(Cc4cc(F)c(F)c(F)c4)c3c2)c1 [Compound I-0657]	–	20 nM	EC50 (SARS-CoV-2; [3]): 76.1 nM
COc1nc(N2CCC(O)(C(F)F)C2)cc2c1c(=O)n(-c1cncc(Cl)c1)c(=O)n2-c1ccc(F)c(Cl)c1 (centres unmarked) [Compound I-1036]	< 100 nM	< 100 nM	–
COc1cc(-c2cc3c(C(F)(F)F)n[nH]c3cc2Cl)cc2c1c(=O)n(Cc1ncn(C)n1)c(=O)n2Cc1cc(F)c(F)c(F)c1 [Compound I-0875]	< 100 nM	< 100 nM	–
COc1cc(-c2ncccc2Cl)cc2c1c(=O)n(Cc1ncn(C)n1)c(=O)n2Cc1cc(F)c(F)c(F)c1 [Compound I-0838]	100 to 1000 nM	< 100 nM	–
